Tests used:
HIS-TGFβR1 T204D = target: T1, HIS-TGFβR1 T204D (Homo sapiens, UniProt P36897, T204D); experiment: HTRF probe-displacement assay, HIS-TGFβR1 T204D; assay type: binding; conditions: read-out: TGFβR1 (μM) IC50
T1 sequence (P36897 34-503 T204D): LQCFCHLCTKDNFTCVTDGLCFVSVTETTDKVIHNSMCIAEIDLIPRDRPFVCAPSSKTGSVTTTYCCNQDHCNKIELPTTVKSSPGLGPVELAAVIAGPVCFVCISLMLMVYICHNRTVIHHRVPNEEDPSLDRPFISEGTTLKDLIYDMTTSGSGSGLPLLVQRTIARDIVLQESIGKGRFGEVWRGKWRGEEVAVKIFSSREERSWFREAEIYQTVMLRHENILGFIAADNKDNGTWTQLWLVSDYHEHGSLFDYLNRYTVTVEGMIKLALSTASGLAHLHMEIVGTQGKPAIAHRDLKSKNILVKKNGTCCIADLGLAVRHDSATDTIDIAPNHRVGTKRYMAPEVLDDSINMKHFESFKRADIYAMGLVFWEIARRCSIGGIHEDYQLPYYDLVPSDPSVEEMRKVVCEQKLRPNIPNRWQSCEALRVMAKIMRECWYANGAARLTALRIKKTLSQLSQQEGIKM

HIS-TGFβR2 WT = HIS-TGFβR2 WT (Homo sapiens, UniProt P37173); experiment: HTRF probe-displacement assay, HIS-TGFβR2 WT; assay type: binding
HIS-TGFβR2 WT, sequence (P37173 23-567): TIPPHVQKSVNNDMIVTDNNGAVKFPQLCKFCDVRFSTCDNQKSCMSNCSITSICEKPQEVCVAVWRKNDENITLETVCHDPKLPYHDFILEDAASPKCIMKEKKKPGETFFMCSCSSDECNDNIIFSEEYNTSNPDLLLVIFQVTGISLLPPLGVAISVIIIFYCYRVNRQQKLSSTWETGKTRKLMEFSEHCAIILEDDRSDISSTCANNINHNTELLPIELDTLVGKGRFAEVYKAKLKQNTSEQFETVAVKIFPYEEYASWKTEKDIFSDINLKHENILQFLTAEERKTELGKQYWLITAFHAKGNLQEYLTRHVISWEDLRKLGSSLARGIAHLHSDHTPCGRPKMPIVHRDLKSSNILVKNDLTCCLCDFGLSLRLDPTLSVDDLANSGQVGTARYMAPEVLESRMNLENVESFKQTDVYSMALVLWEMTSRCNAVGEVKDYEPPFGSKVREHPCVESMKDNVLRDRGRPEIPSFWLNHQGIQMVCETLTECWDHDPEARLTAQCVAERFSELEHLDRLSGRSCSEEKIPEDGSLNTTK

IC50 (HIS-TGFβR1 T204D) [µM] | IC50 (HIS-TGFβR2 WT) [µM] | SMILES
0.009 | > 15 | COc1ccc(-c2c(-c3ccnc(NC(C)=O)c3)[nH]c3c(Cl)ccnc23)nc1 [Example 62, N-{4-[7-Chloro-3-(5-methoxypyridin-2-yl)-1H-pyrrolo[3,2-b]pyridin-2-yl]pyridin-2-yl}acetamide]
0.003 | 27.3 | CC(=O)Nc1cc(-c2[nH]c3c(CN(C)C)ccnc3c2-c2cccc(C(F)F)n2)ccn1 [Example 141, N-(4-{3-[6-(Difluoromethyl)pyridin-2-yl]-7-[(dimethylamino)methyl]-1H-pyrrolo[3,2-b]pyridin-2-yl}pyridin-2-yl)acetamide]
0.001 | 8.47 | CC(=O)Nc1cc(-c2[nH]c3c(CN4CCN(C)CC4)ccnc3c2-c2cccc(C(F)F)n2)ccn1 [Example 139, N-(4-{3-[6-(Difluoromethyl)pyridin-2-yl]-7-[(4-methylpiperazin-1-yl)methyl]-1H-pyrrolo[3,2-b]pyridin-2-yl}pyridin-2-yl)acetamide]
0.006 | 7.85 | COc1cccc(-c2c(-c3ccnc(NC(C)=O)c3)[nH]c3cccnc23)n1 [Example 2, N-{4-[3-(6-Methoxypyridin-2-yl)-1H-pyrrolo[3,2-b]pyridin-2-yl]pyridin-2-yl}acetamide]
0.0016 | 0.572 | COc1ccnc2c(-c3nc(C)cs3)c(-c3ccnc(NC(C)=O)c3)[nH]c12 [Example 234, N-(4-(7-Methoxy-3-(4-methylthiazol-2-yl)-1H-pyrrolo[3,2-b]pyridin-2-yl)pyridin-2-yl)acetamide]
0.005 | > 15 | [2H]C([2H])([2H])Oc1ccc(-c2c(-c3ccnc(NC(C)=O)c3)[nH]c3cc(Cl)cnc23)nc1 [Example 105, N-(4-(6-Chloro-3-(5-(methoxy-d3)pyridin-2-yl)-1H-pyrrolo[3,2-b]pyridin-2-yl)pyridin-2-yl)acetamide]
0.001 | > 15 | COc1ccc(-c2c(-c3ccnc(NC(=O)CN4CCN(CCO)CC4)c3)[nH]c3cc(Cl)cnc23)nc1 [Example 252, N-(4-(6-Chloro-3-(5-methoxypyridin-2-yl)-1H-pyrrolo[3,2-b]pyridin-2-yl)pyridin-2-yl)-2-(4-(2-hydroxyethyl)piperazin-1-yl)acetamide]
0.003 | 0.11 | CC(=O)Nc1cc(-c2[nH]c3cc(Cl)cnc3c2-c2cccc(F)n2)ccn1 [Example 45, N-{4-[6-Chloro-3-(6-fluoropyridin-2-yl)-1H-pyrrolo[3,2-b]pyridin-2-yl]pyridin-2-yl}acetamide]
0.002 | 8.37 | CC(=O)Nc1cc(-c2[nH]c3c(C(F)F)ccnc3c2-c2cccc(C(F)F)n2)ccn1 [Example 149, N-{4-[7-(Difluoromethyl)-3-[6-(difluoromethyl)pyridin-2-yl]-1H-pyrrolo[3,2-b]pyridin-2-yl]pyridin-2-yl}acetamide]
0.0061 | 0.118 | COc1ccc(-c2c(-c3ccnc(NC(C)=O)c3)[nH]c3c(C(F)F)ccnc23)cn1 [Example 213, N-(4-(7-(Difluoromethyl)-3-(6-methoxypyridin-3-yl)-1H-pyrrolo[3,2-b]pyridin-2-yl)pyridin-2-yl)acetamide]
0.003 | 14.6 | COc1cnc2c(-c3ccc(OC(F)F)cn3)c(-c3ccnc(NC(C)=O)c3)[nH]c2c1 [Example 113, N-(4-(3-(5-(Difluoromethoxy)pyridin-2-yl)-6-methoxy-1H-pyrrolo[3,2-b]pyridin-2-yl)pyridin-2-yl)acetamide]
0.002 | 4.07 | CN(C)C1CCN(CC(=O)Nc2cc(-c3[nH]c4cc(Cl)cnc4c3-c3ccc(F)cn3)ccn2)CC1 [Example 245, N-(4-(6-Chloro-3-(5-fluoropyridin-2-yl)-1H-pyrrolo[3,2-b]pyridin-2-yl)pyridin-2-yl)-2-(4-(dimethylamino)piperidin-1-yl)acetamide]
0.188 | > 15 | CC(=O)Nc1cc(-c2[nH]c3c(N4CCCC4)ccnc3c2-c2cccc(C(F)F)n2)ccn1 [Example 156, N-(4-{3-[6-(Difluoromethyl)pyridin-2-yl]-7-(pyrrolidin-1-yl)-1H-pyrrolo[3,2-b]pyridin-2-yl}pyridin-2-yl)acetamide]
0.006 | 0.01 | CC(=O)Nc1cc(-c2[nH]c3c(CO)ccnc3c2-c2ccc(F)nc2)ccn1 [Example 277, N-(4-(3-(6-Fluoropyridin-3-yl)-7-(hydroxymethyl)-1H-pyrrolo[3,2-b]pyridin-2-yl)pyridin-2-yl)acetamide]
0.033 | ≥ 15 | CCNc1cc(-c2[nH]c3cc(Cl)cnc3c2-c2ccc(OC)cn2)ccn1 [Example 242, 4-(6-Chloro-3-(5-methoxypyridin-2-yl)-1H-pyrrolo[3,2-b]pyridin-2-yl)-N-ethylpyridin-2-amine]
0.0034 | > 15 | CC(=O)Nc1cc(-c2[nH]c3cccnc3c2-c2cccc(OC(F)F)n2)ccn1 [Example 174, N-(4-(3-(6-(Difluoromethoxy)pyridin-2-yl)-1H-pyrrolo[3,2-b]pyridin-2-yl)pyridin-2-yl)acetamide]
0.0055 | 0.111 | CC(=O)Nc1cc(-c2[nH]c3cccnc3c2-c2nc(CO)cs2)ccn1 [Example 204, N-(4-(3-(4-(Hydroxymethyl)thiazol-2-yl)-1H-pyrrolo[3,2-b]pyridin-2-yl)pyridin-2-yl)acetamide]
0.016 | 0.93 | COc1ccc(-c2c(-c3ccnc(NC(C)=O)c3)[nH]c3ccc(OC)nc23)cn1 [Example 76, N-(4-(5-Methoxy-3-(6-methoxypyridin-3-yl)-1H-pyrrolo[3,2-b]pyridin-2-yl)pyridin-2-yl)acetamide]
0.002 | 0.13 | COC(=O)Nc1cc(-c2[nH]c3cccnc3c2-c2ccc(OC)nc2)ccn1 [Example 84, Methyl N-{4-[3-(6-methoxypyridin-3-yl)-1H-pyrrolo[3,2-b]pyridin-2-yl]pyridin-2-yl}carbamate]
0.002 | 0.06 | COc1ccc(-c2c(-c3ccnc(NC(C)=O)c3)[nH]c3ccc(F)nc23)cn1 [Example 36, N-{4-[5-Fluoro-3-(6-methoxypyridin-3-yl)-1H-pyrrolo[3,2-b]pyridin-2-yl]pyridin-2-yl}acetamide]
0.002 | 2.94 | [2H]C([2H])([2H])C(O)c1ccnc2c(-c3cccc(C(F)F)n3)c(-c3ccnc(NC(C)=O)c3)[nH]c12 (stereo not drawn) [Example 145, N-(4-{3-[6-(Difluoromethyl)pyridin-2-yl]-7-[1-hydroxy(2,2,2-2H)ethyl]-1H-pyrrolo[3,2-b]pyridin-2-yl}pyridin-2-yl)acetamide]
0.001 | 1.77 | CC(=O)Nc1cc(-c2[nH]c3c(C(C)(C)O)ccnc3c2-c2cccc(C(F)F)n2)ccn1 [Example 154, N-(4-{3-[6-(Difluoromethyl)pyridin-2-yl]-7-(2-hydroxypropan-2-yl)-1H-pyrrolo[3,2-b]pyridin-2-yl}pyridin-2-yl)acetamide]
0.76 | > 15 | COC(=O)c1cc(Cl)nc2c(-c3ccc(F)cn3)c(-c3ccnc(NC(C)=O)c3)[nH]c12 [Example 69, Methyl 5-chloro-2-(2-acetamidopyridin-4-yl)-3-(5-fluoropyridin-2-yl)-1H-pyrrolo[3,2-b]pyridine-7-carboxylate]
0.004 | 4.33 | COc1ccc(-c2c(-c3ccnc(NC(C)=O)c3)[nH]c3cc(C(O)C(F)(F)F)cnc23)nc1 (stereo not drawn) [Example 297, N-(4-(3-(5-Methoxypyridin-2-yl)-6-(2,2,2-trifluoro-1-hydroxyethyl)-1H-pyrrolo[3,2-b]pyridin-2-yl)pyridin-2-yl)acetamide]
0.32 | 0.49 | CC(=O)Nc1cc(-c2[nH]c3cccnc3c2-c2cc(C)cc(Cl)n2)ccn1 [Example 30, N-{4-[3-(6-Chloro-4-methylpyridin-2-yl)-1H-pyrrolo[3,2-b]pyridin-2-yl]pyridin-2-yl}acetamide]
0.003 | 0.24 | COc1cnc2c(-c3ccc(F)cn3)c(-c3ccnc(NC(C)=O)c3)[nH]c2c1 [Example 49, N-{4-[3-(5-Fluoropyridin-2-yl)-6-methoxy-1H-pyrrolo[3,2-b]pyridin-2-yl]pyridin-2-yl}acetamide]
0.002 | 0.038 | COc1ccc(-c2c(-c3ccnc(NC(C)=O)c3)[nH]c3c(C(C)(C)O)ccnc23)cn1 [Example 299, N-(4-(7-(2-Hydroxypropan-2-yl)-3-(6-methoxypyridin-3-yl)-1H-pyrrolo[3,2-b]pyridin-2-yl)pyridin-2-yl)acetamide]
0.002 | 0.267 | CC(=O)Nc1cc(-c2[nH]c3c(C(C)O)ccnc3c2-c2cccc(F)n2)ccn1 (stereo not drawn) [Example 262, N-(4-(3-(6-Fluoropyridin-2-yl)-7-(1-hydroxyethyl)-1H-pyrrolo[3,2-b]pyridin-2-yl)pyridin-2-yl)acetamide]
0.041 | 0.45 | COc1ccc(-c2c(-c3ccnc(N)c3)[nH]c3cccnc23)cn1 [Example 52, 4-[3-(6-Methoxypyridin-3-yl)-1H-pyrrolo[3,2-b]pyridin-2-yl]pyridin-2-amine]
0.005 | 0.98 | CC(=O)Nc1cc(-c2[nH]c3c(Cl)ccnc3c2-c2ccc(F)cn2)ccn1 [Example 61, N-{4-[7-Chloro-3-(5-fluoropyridin-2-yl)-1H-pyrrolo[3,2-b]pyridin-2-yl]pyridin-2-yl}acetamide]
